Several values for one entry are separate records, joined by “and”; a condition that tells them apart may be missing. Identical values can stand only once. Square brackets hold non-standard residues; d marks the D form. Peptide text beside a SMILES is read from it. * marks the point of attachment. Dolaproine = CO[C@@H]([C@@H]1CCCN1)[C@@H](C)C(=O)O; Dil = CC[C@H](C)[C@H](NC)[C@@H](CC(=O)O)OC; X1 = C[C@@H](N*)[C@@H](O)c1ccccc1; NMeV = CN[C@H](C(=O)O)C(C)C
Assays:
[1] = system: HPAC tumor cells (ATCC CRL-2119) human pancreatic cancer; assay: HPAC human pancreatic cancer xenograft model in male BALB/c nude mice: tumor volume, T/C, TGI; type: in vivo; settings: for Tumor Volume (mm^3), Mean: group mean; for Tumor Volume (mm^3), Mean / Tumor Volume (mm^3): QW x 4, ADC (OBI-999) and OBI-888 10 mg/kg IV, MMAE 0.191 mg/kg IP; for Tumor Volume (mm^3): individual animals
Protocol: The HPAC tumor cells (ATCC CRL-2119) were maintained in vitro as a monolayer culture in 1:1 mixture of Dulbecco's modified Eagle's medium and Ham's F12 medium containing 1.2 g/L sodium bicarbonate, 2.5 mM L-glutamine, 15 mM HEPES and 0.5 mM sodium pyruvate supplemented with 0.002 mg/mL insulin, 0.005 mg/mL transferrin, 40 ng/mL hydrocortisone, 10 ng/mL epidermal growth factor and 5% fetal bovine serum, 100 U/mL penicillin and 100 μg/mL streptomycin at 37° C. in an atmosphere of 5% CO2 in air. The tumor cells were routinely subcultured twice weekly by trypsin-EDTA treatment. The cells growing in an exponential growth phase were harvested and counted for tumor inoculation.
The endpoint was to determine the anti-tumor effects of testing compounds. Tumor size was measured twice weekly in two dimensions using a caliper, and the volume was expressed in mm^3 using the formula: V=0.5 a×b^2 where a and b are the long and short diameters of the tumor, respectively. The tumor size was then used for calculation of T/C values. The T/C value (in percent) is an indication of antitumor effectiveness; T and C are the mean volumes of the treated and control groups, respectively, on a given day. TGI was calculated for each group using the formula: TGI (%)=[1−(Ti−T0)/(Vi−V0)]×100; Ti is the average tumor volume of a treatment group on a given day, T0 is the average tumor volume of the treatment group on day 0, Vi is the average tumor volume of the vehicle control group on the same day with Ti, and V0 is the average tumor volume of the vehicle group on day 0.
Summary statistics, including mean and the standard error of the mean (SEM), are provided for the tumor volume of each group at each time point. Statistical analysis of difference in the tumor volume among the groups were conducted on the data obtained at the best therapeutic time point after the final dose (the 37th day after grouping). A one-way ANOVA was performed to compare the tumor volume among groups, and when a significant F-statistics (a ratio of treatment variance to the error variance) was obtained, comparisons between groups were carried out with Games-Howell test, otherwise they were carried out with Dunnett (2 sided) test. […] All data were analyzed using SPSS 17.0. p<0.05 was considered to be statistically significant.

[2] = Body weight, mortality and signs of overt toxicity in NCI-H526 implanted female nu/nu mice; type: in vivo, mouse; settings: NCI-H526 xenograft, female nu/nu mice, OBI-999/OBI-888 10 mg/kg IV, MMAE 0.191 mg/kg IP, once weekly x 4; for Body Weight (g), Mean: group mean; for Body Weight (g), individual animal No. 1-8: single mice
Protocol: In a xenograft tumor model of human small cell lung cancer, viable NCI-H526 stage E carcinoma; variant small cell lung cancer cells (ATCC CRL-5811), were subcutaneously (SC) implanted (1×10^6 cells with matrigel (1:0.8) in 0.2 mL/mouse) into the right flank of female nu/nu mice. Tumor implanted mice were divided into five treatment groups, each group containing eight animals, and test agent administrations were initiated one day after cell implantation (denoted as Day 1).
Female nu/nu nude, aged 6-7 weeks, were obtained from BioLasco Taiwan (under Charles River Laboratories Licensee) and used. The animals were housed in individually ventilated cages (IVC, 36 Mini Isolator system). The allocation for 5 animals was 27×20×14 in cm. All animals were maintained in a hygienic environment under controlled temperature (20-24° C.) and humidity (30-70%) with 12-hour light/dark cycle. Free access to standard lab diet [MFG (Oriental Yeast Co., Ltd., Japan)] and autoclaved tap water were granted. All aspects of this work including housing, experimentation, and animal disposal were performed in general accordance with the “Guide for the Care and Use of Laboratory Animals: Eighth Edition” (National Academies Press, Washington, D.C., 2011) in our AAALAC-accredited laboratory animal facility. In addition, the animal care and use protocol was reviewed and approved by the IACUC at Eurofins Panlabs Taiwan, Ltd.
The tumor volumes, body weights, mortality, and signs of overt toxicity were monitored and recorded twice weekly for 45 days. Tumor growth inhibition was calculated as T/C (treatment/control)×100%. A T/C value≤42% compared to that of the vehicle control group was considered significant anti-tumor activity. Two-way ANOVA followed by Bonferroni test was used to ascertain the statistically significant significance of groups compared to respective vehicle control (*p<0.05).

[3] = 0.191 mg/kg IP once weekly for four weeks, single agent, Day 37

CC[C@H](C)[C@@H]([C@@H](CC(=O)N1CCC[C@H]1[C@H](OC)[C@@H](C)C(=O)N[C@H](C)[C@@H](O)c1ccccc1)OC)N(C)C(=O)[C@@H](NC(=O)[C@@H](NC)C(C)C)C(C)C [MMAE, monomethyl auristatin E] (H-[NMeV]V[Dil][Dolaproine]-X1)
antitumor activity (in words) ([1]; 0.191 mg/kg IP once weekly for four weeks, single agent): minor antitumor activity
T/C [1, 3]: 75.8%
TGI [1, 3]: 25.2%
mean tumor size [1, 3]: 1,644 mm^3
Tumor Volume (mm^3), Mean ([1]; Day 0): 85 mm^3
Tumor Volume (mm^3) ([1]; Day 0): 58 mm^3 and 53 mm^3 and 132 mm^3 and 72 mm^3 and 86 mm^3 and 116 mm^3 and 71 mm^3 and 91 mm^3
Tumor Volume (mm^3), Mean ([1]; Day 3): 114 mm^3
Tumor Volume (mm^3) ([1]; Day 3): 128 mm^3 (2×) and 76 mm^3 and 148 mm^3 and 82 mm^3 and 158 mm^3 and 57 mm^3 and 137 mm^3
Tumor Volume (mm^3), Mean ([1]; Day 7): 134 mm^3
Tumor Volume (mm^3) ([1]; Day 7): 104 mm^3 and 114 mm^3 and 177 mm^3 and 144 mm^3 and 97 mm^3 and 167 mm^3
Tumor Volume (mm^3), Mean ([1]; Day 10): 245 mm^3
Tumor Volume (mm^3) ([1]; Day 10): 444 mm^3 and 196 mm^3 and 219 mm^3 and 160 mm^3 and 207 mm^3
Tumor Volume (mm^3), Mean ([1]; Day 14): 385 mm^3
Tumor Volume (mm^3) ([1]; Day 14): 429 mm^3 and 418 mm^3 (2×) and 268 mm^3 and 390 mm^3
Tumor Volume (mm^3), Mean ([1]; Day 17): 464 mm^3
Tumor Volume (mm^3) ([1]; Day 17): 590 mm^3 and 452 mm^3 and 510 mm^3 and 321 mm^3 and 448 mm^3
Tumor Volume (mm^3), Mean ([1]; Day 21): 551 mm^3
Tumor Volume (mm^3) ([1]; Day 21): 649 mm^3 and 692 mm^3 and 581 mm^3 and 383 mm^3 and 451 mm^3
Tumor Volume (mm^3), Mean ([1]; Day 24): 672 mm^3
Tumor Volume (mm^3) ([1]; Day 24): 748 mm^3 and 705 mm^3 and 822 mm^3 and 511 mm^3 and 571 mm^3
Tumor Volume (mm^3), Mean ([1]; Day 28): 858 mm^3
Tumor Volume (mm^3) ([1]; Day 28): 1080 mm^3 and 888 mm^3 and 913 mm^3 and 623 mm^3 and 785 mm^3
Tumor Volume (mm^3), Mean ([1]; Day 31): 1194 mm^3
Tumor Volume (mm^3) ([1]; Day 31): 1174 mm^3 and 1340 mm^3 and 1439 mm^3 and 1030 mm^3 and 989 mm^3
Tumor Volume (mm^3), Mean ([1]; Day 35): 1449 mm^3
Tumor Volume (mm^3) ([1]; Day 35): 1650 mm^3 and 1656 mm^3 and 1496 mm^3 and 1236 mm^3 and 1208 mm^3
Tumor Volume (mm^3), Mean ([1]; Day 37): 1644 mm^3
Tumor Volume (mm^3) ([1]; Day 37): 1652 mm^3 and 1963 mm^3 and 1828 mm^3 and 1196 mm^3 and 1580 mm^3
Body Weight (g), Mean ([2]; Day 1): 23.9 g
Body Weight (g), individual animal No. 1-8 ([2]; Day 1): 24 g (3×) and 25 g and 26 g and 23 g (2×) and 22 g
Body Weight (g), Mean ([2]; Day 4): 23.6 g
Body Weight (g), individual animal No. 1-8 ([2]; Day 4): 22 g and 25 g and 27 g and 21 g and 23 g (2×) and 24 g (2×)
Body Weight (g), individual animal No. 1-8 ([2]; Day 8): 24 g (2×) and 26 g and 28 g and 21 g and 25 g (2×) and 23 g

Reference: US11000601B2, “Conjugated biological molecules, pharmaceutical compositions and methods” (OBI Pharma, Inc., priority 2016, dated 2021)
